What was measured:
Assay in all cases: NCI-60 single-dose screen
Assay type in all cases: cell-based
[1] = test system: MDA-MB-468; conditions: Homo sapiens, single dose 10 µM, '-' = no inhibition, read-out: % Growth Inhibition
Description: (§1) The National Cancer Institute’s Developmental Therapeutic Program (www.dtp.nci.nih.gov) has tested compounds 9–29 (except compounds 21 and 22) against 60 cancer cell lines from nine types (leukemia, lung, colon, CNS, melanoma, ovarian, renal, prostate, and breast cancer) at a single dose (10 μM) ([El-Sherief et al., 2018]). […] The most sensitive cells included leukemia (SR, K-562, and MOLT-4), lung (NCI-H522, […], and EKVX), breast (MCF-7 and T-47D), colon (HCT-15 and HT-29), and ovarian (NCI/ADR-RES).
(§2) The National Cancer Institute’s Developmental Therapeutic Program (www.dtp.nci.nih.gov) evaluated compounds 9–29 (excluding 21 and 22) against 60 cancer cell lines from nine categories (leukemia, lung, colon, CNS, melanoma, ovarian, renal, prostate, and breast cancer) at a single dose (10 μM) ([El-Sherief et al., 2018]). See Supplementary Material A1 for more details.

[2] = test system: SK-OV-3; conditions: Homo sapiens, single dose 10 µM, '-' = no inhibition, read-out: % Growth Inhibition
Description: as §1, §2

[3] = test system: SN12C; conditions: Homo sapiens, single dose 10 µM, '-' = no inhibition, read-out: % Growth Inhibition
Description: as §1, §2

[4] = test system: SNB-75; conditions: Homo sapiens, single dose 10 µM, '-' = no inhibition, read-out: % Growth Inhibition
Description: as §1, §2

[5] = test system: KM12; conditions: Homo sapiens, single dose 10 µM, '-' = no inhibition, read-out: % Growth Inhibition
Description: as §1, §2

[6] = test system: HL-60(TB); conditions: Homo sapiens, single dose 10 µM, '-' = no inhibition, read-out: % Growth Inhibition
Description: as §1, §2

[7] = test system: CCRF-CEM; conditions: Homo sapiens, single dose 10 µM, '-' = no inhibition, read-out: % Growth Inhibition
Description: as §1, §2

[8] = test system: SR; conditions: Homo sapiens, single dose 10 µM, '-' = no inhibition, read-out: % Growth Inhibition
Description: as §1, §2

[9] = test system: MALME-3M; conditions: Homo sapiens, single dose 10 µM, '-' = no inhibition, read-out: % Growth Inhibition
Description: as §1, §2

[10] = test system: NCI-H23; conditions: Homo sapiens, single dose 10 µM, '-' = no inhibition, read-out: % Growth Inhibition
Description: as §1, §2

[11] = test system: NCI-H460; conditions: Homo sapiens, single dose 10 µM, '-' = no inhibition, read-out: % Growth Inhibition
Description: as §1, §2

[12] = test system: TK-10; conditions: Homo sapiens, single dose 10 µM, '-' = no inhibition, read-out: % Growth Inhibition
Description: as §1, §2

[13] = test system: DU-145; conditions: Homo sapiens, single dose 10 µM, '-' = no inhibition, read-out: % Growth Inhibition
Description: as §1, §2

[14] = test system: HCC-2998; conditions: Homo sapiens, single dose 10 µM, '-' = no inhibition, read-out: % Growth Inhibition
Description: as §1, §2

[15] = test system: SW-620; conditions: Homo sapiens, single dose 10 µM, '-' = no inhibition, read-out: % Growth Inhibition
Description: as §1, §2

[16] = test system: 786-0; conditions: Homo sapiens, single dose 10 µM, '-' = no inhibition, read-out: % Growth Inhibition
Description: as §1, §2

[17] = test system: A549/ATCC; conditions: Homo sapiens, single dose 10 µM, '-' = no inhibition, read-out: % Growth Inhibition
Description: as §1, §2

[18] = test system: HOP-62; conditions: Homo sapiens, single dose 10 µM, '-' = no inhibition, read-out: % Growth Inhibition
Description: as §1, §2

[19] = test system: OVCAR-8; conditions: Homo sapiens, single dose 10 µM, '-' = no inhibition, read-out: % Growth Inhibition
Description: as §1, §2

[20] = test system: HCT-116; conditions: Homo sapiens, single dose 10 µM, '-' = no inhibition, read-out: % Growth Inhibition
Description: as §1, §2

[21] = test system: SF-268; conditions: Homo sapiens, single dose 10 µM, '-' = no inhibition, read-out: % Growth Inhibition
Description: as §1, §2

[22] = test system: HT29; conditions: Homo sapiens, HT-29, single dose 10 µM, '-' = no inhibition, read-out: % Growth Inhibition
Description: as §1, §2

[23] = test system: T-47D; conditions: Homo sapiens, T47D, single dose 10 µM, '-' = no inhibition, read-out: % Growth Inhibition
Description: as §1, §2

[24] = test system: SF-295; conditions: Homo sapiens, single dose 10 µM, '-' = no inhibition, read-out: % Growth Inhibition
Description: as §1, §2

[25] = test system: ACHN 1; conditions: Homo sapiens, single dose 10 µM, '-' = no inhibition, read-out: % Growth Inhibition
Description: as §1, §2

[26] = test system: SK-MEL-5; conditions: Homo sapiens, single dose 10 µM, '-' = no inhibition, read-out: % Growth Inhibition
Description: as §1, §2

[27] = test system: COLO 205; conditions: Homo sapiens, single dose 10 µM, '-' = no inhibition, read-out: % Growth Inhibition
Description: as §1, §2

[28] = test system: BT-549; conditions: Homo sapiens, single dose 10 µM, '-' = no inhibition, read-out: % Growth Inhibition
Description: as §1, §2

[29] = test system: SK-MEL-28; conditions: Homo sapiens, single dose 10 µM, '-' = no inhibition, read-out: % Growth Inhibition
Description: as §1, §2

[30] = test system: HOP-92; conditions: Homo sapiens, single dose 10 µM, '-' = no inhibition, read-out: % Growth Inhibition
Description: as §1, §2

[31] = test system: OVCAR-4; conditions: Homo sapiens, single dose 10 µM, '-' = no inhibition, read-out: % Growth Inhibition
Description: as §1, §2

[32] = test system: MCF7; conditions: Homo sapiens, single dose 10 µM, '-' = no inhibition, read-out: % Growth Inhibition
Description: as §1, §2

[33] = test system: M14; conditions: Homo sapiens, single dose 10 µM, '-' = no inhibition, read-out: % Growth Inhibition
Description: as §1, §2

[34] = test system: RXF 393; conditions: Homo sapiens, single dose 10 µM, '-' = no inhibition, read-out: % Growth Inhibition
Description: as §1, §2

[35] = test system: EKVX; conditions: Homo sapiens, single dose 10 µM, '-' = no inhibition, read-out: % Growth Inhibition
Description: as §1, §2

[36] = test system: U251; conditions: Homo sapiens, U-251, single dose 10 µM, '-' = no inhibition, read-out: % Growth Inhibition
Description: as §1, §2

[37] = test system: IGROV1; conditions: Homo sapiens, IGROV-1, single dose 10 µM, '-' = no inhibition, read-out: % Growth Inhibition
Description: as §1, §2

[38] = test system: UACC-257; conditions: Homo sapiens, single dose 10 µM, '-' = no inhibition, read-out: % Growth Inhibition
Description: as §1, §2

[39] = test system: SF-539; conditions: Homo sapiens, single dose 10 µM, '-' = no inhibition, read-out: % Growth Inhibition
Description: as §1, §2

[40] = test system: RPMI-8226; conditions: Homo sapiens, single dose 10 µM, '-' = no inhibition, read-out: % Growth Inhibition
Description: as §1, §2

[41] = test system: PC-3; conditions: Homo sapiens, single dose 10 µM, '-' = no inhibition, read-out: % Growth Inhibition
Description: as §1, §2

[42] = test system: SK-MEL-2; conditions: Homo sapiens, single dose 10 µM, '-' = no inhibition, read-out: % Growth Inhibition
Description: as §1, §2

[43] = test system: HS 578T; conditions: Homo sapiens, single dose 10 µM, '-' = no inhibition, read-out: % Growth Inhibition
Description: as §1, §2

[44] = test system: A498; conditions: Homo sapiens, single dose 10 µM, '-' = no inhibition, read-out: % Growth Inhibition
Description: as §1, §2

[45] = test system: K-562; conditions: Homo sapiens, K562, single dose 10 µM, '-' = no inhibition, read-out: % Growth Inhibition
Description: as §1, §2

[46] = test system: MDA-MB-435; conditions: Homo sapiens, single dose 10 µM, '-' = no inhibition, read-out: % Growth Inhibition
Description: as §1, §2

[47] = test system: OVCAR-5; conditions: Homo sapiens, single dose 10 µM, '-' = no inhibition, read-out: % Growth Inhibition
Description: as §1, §2

[48] = test system: NCI-H322M; conditions: Homo sapiens, single dose 10 µM, '-' = no inhibition, read-out: % Growth Inhibition
Description: as §1, §2

Q: How did the inhibition at 10 µM [1] turn out when COc1ccc(-c2cc(-c3ccc(Cl)cc3)nc(SC)n2)cc1 [Compound 9, 4-(4-Chlorophenyl)-6-(4-methoxyphenyl)-2-(methylthio)pyrimidine] was run?
A: Its inhibition at 10 µM is 26.2%.

Q: And the inhibition at 10 µM [2]?
A: The inhibition at 10 µM was < 0%.

Q: And the inhibition at 10 µM [3]?
A: Its inhibition at 10 µM is 11.2%.

Q: What about the inhibition at 10 µM [4] of the same molecule?
A: Its inhibition at 10 µM is < 0%.

Q: And the inhibition at 10 µM [5]?
A: Its inhibition at 10 µM is 5.71%.

Q: And the inhibition at 10 µM [6]?
A: Its inhibition at 10 µM is 7.42%.

Q: What about the inhibition at 10 µM [7] of the same molecule?
A: Its inhibition at 10 µM is 0.1%.

Q: And the inhibition at 10 µM [8]?
A: Its inhibition at 10 µM is 12.7%.

Q: And the inhibition at 10 µM [9]?
A: The inhibition at 10 µM was 11.3%.

Q: What about the inhibition at 10 µM [10] of the same molecule?
A: Its inhibition at 10 µM is 9.87%.

Q: What about the inhibition at 10 µM [11] of the same molecule?
A: The inhibition at 10 µM was 4.25%.

Q: What about the inhibition at 10 µM [12] of the same molecule?
A: The inhibition at 10 µM was < 0%.

Q: What about the inhibition at 10 µM [13] of the same molecule?
A: The inhibition at 10 µM was 5.68%.

Q: What about the inhibition at 10 µM [14] of the same molecule?
A: Its inhibition at 10 µM is < 0%.

Q: And the inhibition at 10 µM [15]?
A: Its inhibition at 10 µM is 6.31%.

Q: And the inhibition at 10 µM [16]?
A: The inhibition at 10 µM was 1.88%.

Q: And the inhibition at 10 µM [17]?
A: The inhibition at 10 µM was 7.56%.

Q: What about the inhibition at 10 µM [18] of the same molecule?
A: Its inhibition at 10 µM is 9.16%.

Q: And the inhibition at 10 µM [19]?
A: Its inhibition at 10 µM is 11%.

Q: And the inhibition at 10 µM [20]?
A: Its inhibition at 10 µM is 5.47%.

Q: And the inhibition at 10 µM [21]?
A: The inhibition at 10 µM was 4.44%.

Q: And the inhibition at 10 µM [22]?
A: Its inhibition at 10 µM is 15.6%.

Q: What about the inhibition at 10 µM [23] of the same molecule?
A: Its inhibition at 10 µM is 9.97%.

Q: And the inhibition at 10 µM [24]?
A: Its inhibition at 10 µM is 7.84%.

Q: What about the inhibition at 10 µM [25] of the same molecule?
A: The inhibition at 10 µM was 4.08%.

Q: And the inhibition at 10 µM [26]?
A: Its inhibition at 10 µM is 4.98%.

Q: What about the inhibition at 10 µM [27] of the same molecule?
A: Its inhibition at 10 µM is 0.19%.

Q: And the inhibition at 10 µM [28]?
A: The inhibition at 10 µM was < 0%.

Q: What about the inhibition at 10 µM [29] of the same molecule?
A: Its inhibition at 10 µM is < 0%.

Q: And the inhibition at 10 µM [30]?
A: Its inhibition at 10 µM is 3.16%.

Q: What about the inhibition at 10 µM [31] of the same molecule?
A: The inhibition at 10 µM was 4.46%.

Q: And the inhibition at 10 µM [32]?
A: The inhibition at 10 µM was 28.7%.

Q: And the inhibition at 10 µM [33]?
A: The inhibition at 10 µM was 3.51%.

Q: What about the inhibition at 10 µM [34] of the same molecule?
A: Its inhibition at 10 µM is 7.91%.

Q: And the inhibition at 10 µM [35]?
A: The inhibition at 10 µM was 19.4%.

Q: What about the inhibition at 10 µM [36] of the same molecule?
A: The inhibition at 10 µM was 3.42%.

Q: And the inhibition at 10 µM [37]?
A: The inhibition at 10 µM was 3.15%.

Q: What about the inhibition at 10 µM [38] of the same molecule?
A: Its inhibition at 10 µM is 5.09%.

Q: And the inhibition at 10 µM [39]?
A: The inhibition at 10 µM was 6.28%.

Q: What about the inhibition at 10 µM [40] of the same molecule?
A: Its inhibition at 10 µM is 10.8%.

Q: What about the inhibition at 10 µM [41] of the same molecule?
A: The inhibition at 10 µM was 6.22%.

Q: And the inhibition at 10 µM [42]?
A: Its inhibition at 10 µM is < 0%.

Q: And the inhibition at 10 µM [43]?
A: Its inhibition at 10 µM is 7.95%.

Q: And the inhibition at 10 µM [44]?
A: The inhibition at 10 µM was < 0%.

Q: What about the inhibition at 10 µM [45] of the same molecule?
A: The inhibition at 10 µM was 18.6%.

Q: What about the inhibition at 10 µM [46] of the same molecule?
A: Its inhibition at 10 µM is 1.45%.

Q: And the inhibition at 10 µM [47]?
A: The inhibition at 10 µM was < 0%.

Q: And the inhibition at 10 µM [48]?
A: Its inhibition at 10 µM is 14.3%.

From PMC11576293, “New series of 4,6-diaryl pyrimidines: facile synthesis and antiproliferative activity as dual EGFR/VEGFR-2 inhibitors” (Frontiers in Chemistry, 2024)
